The assay deals with CL2122 worms. The experiment in a line: Transcript analysis of the MSR in CL2122 control worms. Type of assay: in vivo, C. elegans. The conditions noted are these: CL2122, day 1 of adulthood; dox 15 μg/mL, NR 1 mM, AZD 0.3 μM. The procedure:
C. elegans: A total of ˜3000 worms per condition, divided in 3 biological replicates, was recovered in M9 buffer from NGM plates and lysed in the TriPure RNA reagent. Each experiment was repeated twice. Total RNA was transcribed to cDNA using QuantiTect Reverse Transcription Kit (Qiagen). Expression of selected genes was analyzed using the LightCycler480 system (Roche) and LightCycler® 480 SYBR Green I Master reagent (Roche). For C. elegans, 2 housekeeping genes were used to normalize the expression data, namely actin (act-1) and peroxisomal membrane protein 3 (pmp-3).
atfs-1p::atfs-1 expression vector was created by amplifying 1488 bp sequence upstream from the transcription start site of atfs-1 coding region by using worm genomic DNA for the promoter region. […] The correctness of the atfs-1p::atfs-1 construct was assessed by sequencing with the indicated pPD30.38 and atfs-1 seq. primers. Two independent GMC101 lines (AUW9 and AUW10), and one CL2122 strain (AUW11) carrying atfs-1p::atfs-1 transgene as extrachromosomal array were analyzed in the study. […] The deriving F1 worms were shifted from 20° C. to 25° C. at the L4 stage to induce amyloid accumulation and paralysis, and phenotypes assessed over time as indicated. […]

`O=C(c1cc(Cc2n[nH]c(=O)c3ccccc23)ccc1F)N1CCN(C(=O)C2CC2)CC1` [AZD, Olaparib, reference compound]: the “MSR transcripts in control strain” value is reported as “induction of the MSR was also consistently observed”. On to `NC(=O)c1ccc[n+]([C@@H]2O[C@H](CO)[C@@H](O)[C@H]2O)c1` [NR, Nicotinamide Riboside triflate], for which the “MSR transcripts in control strain” value is listed as “induction of the MSR was also consistently observed”.

For the origin of these results see patent publication US20220110902A1, “Methods of treating amyloid-beta peptide diseases” (Ecole Polytechnique Federale de Lausanne, priority 2016, published 2022).
